Source: paper PMC3914206

Assays:
Type in all cases: binding
panel of 442 kinases [1] = target: T1, panel of 442 kinases (Homo sapiens, UniProt P09769); details: Compound Concentration 10 µM
T1 construct: purchased KINOMEscan
Excerpt: (§1) We assessed the selectivity of members of this scaffold using the KINOMEscan methodology across a near comprehensive panel of 442 kinases [[18,27]].

panel of 442 kinases [2] = target: T2, panel of 442 kinases (Homo sapiens, UniProt P37023); details: Compound Concentration 10 µM
T2 construct: purchased KINOMEscan
Excerpt: as §1

panel of 442 kinases [3] = target: T3, panel of 442 kinases (Homo sapiens, UniProt Q16513); details: Compound Concentration 10 µM
T3 construct: purchased KINOMEscan
Excerpt: as §1

panel of 442 kinases [4] = target: T4, panel of 442 kinases (Homo sapiens, UniProt Q9UEW8); details: kinase STK39; compound concentration 10 µM
T4 construct: purchased KINOMEscan
Excerpt: as §1

T2 sequence (P37023 22-503): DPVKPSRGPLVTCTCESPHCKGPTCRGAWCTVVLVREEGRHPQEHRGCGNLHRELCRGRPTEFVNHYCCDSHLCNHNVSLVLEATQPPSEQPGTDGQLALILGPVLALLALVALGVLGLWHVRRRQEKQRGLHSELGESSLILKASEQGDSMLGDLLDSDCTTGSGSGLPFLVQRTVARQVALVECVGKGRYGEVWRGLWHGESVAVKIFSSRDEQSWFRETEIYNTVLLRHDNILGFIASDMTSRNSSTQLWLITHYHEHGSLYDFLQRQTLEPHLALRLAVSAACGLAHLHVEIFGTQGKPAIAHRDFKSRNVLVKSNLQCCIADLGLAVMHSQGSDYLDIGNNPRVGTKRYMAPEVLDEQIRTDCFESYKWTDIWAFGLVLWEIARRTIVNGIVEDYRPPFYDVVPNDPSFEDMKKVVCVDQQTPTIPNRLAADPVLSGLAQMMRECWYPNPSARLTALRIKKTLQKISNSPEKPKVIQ
T1 sequence (P09769 whole entry): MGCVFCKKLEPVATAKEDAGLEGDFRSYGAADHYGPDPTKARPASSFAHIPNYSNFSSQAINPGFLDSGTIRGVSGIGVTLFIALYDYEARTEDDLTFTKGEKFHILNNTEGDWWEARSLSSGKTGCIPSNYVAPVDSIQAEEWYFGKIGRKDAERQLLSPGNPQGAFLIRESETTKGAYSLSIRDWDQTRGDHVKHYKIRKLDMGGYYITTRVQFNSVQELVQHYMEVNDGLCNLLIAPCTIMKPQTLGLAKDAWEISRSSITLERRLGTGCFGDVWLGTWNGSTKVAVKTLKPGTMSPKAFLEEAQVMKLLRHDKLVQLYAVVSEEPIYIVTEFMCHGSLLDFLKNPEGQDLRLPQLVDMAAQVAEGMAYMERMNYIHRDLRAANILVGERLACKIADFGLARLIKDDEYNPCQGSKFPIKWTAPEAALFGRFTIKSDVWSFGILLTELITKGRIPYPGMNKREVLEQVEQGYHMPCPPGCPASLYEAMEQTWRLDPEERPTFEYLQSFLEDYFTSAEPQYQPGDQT
T3 sequence (Q16513 whole entry): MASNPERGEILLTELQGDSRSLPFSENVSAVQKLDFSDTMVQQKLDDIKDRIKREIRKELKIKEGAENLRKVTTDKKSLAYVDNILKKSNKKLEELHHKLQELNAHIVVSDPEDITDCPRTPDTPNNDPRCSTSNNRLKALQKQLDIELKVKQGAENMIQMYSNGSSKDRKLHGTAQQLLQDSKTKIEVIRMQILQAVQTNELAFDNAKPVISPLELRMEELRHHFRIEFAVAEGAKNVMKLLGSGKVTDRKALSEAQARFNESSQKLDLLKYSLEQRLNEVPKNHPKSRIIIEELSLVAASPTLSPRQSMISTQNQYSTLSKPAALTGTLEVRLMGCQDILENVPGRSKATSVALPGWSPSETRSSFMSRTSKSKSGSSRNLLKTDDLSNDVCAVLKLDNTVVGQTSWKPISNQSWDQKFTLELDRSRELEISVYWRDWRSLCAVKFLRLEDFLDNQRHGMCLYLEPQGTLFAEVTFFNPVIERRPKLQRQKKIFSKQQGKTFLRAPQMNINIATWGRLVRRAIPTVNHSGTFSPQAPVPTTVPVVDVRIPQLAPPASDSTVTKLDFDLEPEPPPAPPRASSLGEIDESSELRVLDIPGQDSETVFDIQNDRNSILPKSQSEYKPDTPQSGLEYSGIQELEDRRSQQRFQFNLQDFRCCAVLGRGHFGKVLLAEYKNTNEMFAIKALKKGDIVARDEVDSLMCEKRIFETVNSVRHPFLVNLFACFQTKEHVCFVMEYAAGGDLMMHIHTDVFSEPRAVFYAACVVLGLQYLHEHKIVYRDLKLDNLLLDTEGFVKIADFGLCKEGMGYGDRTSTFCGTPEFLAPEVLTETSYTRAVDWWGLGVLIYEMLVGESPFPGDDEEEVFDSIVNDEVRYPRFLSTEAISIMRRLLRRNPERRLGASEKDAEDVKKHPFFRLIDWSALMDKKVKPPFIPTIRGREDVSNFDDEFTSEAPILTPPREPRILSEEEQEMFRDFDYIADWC

Structure (SMILES) | KINOMEscan: FGR (panel of 442 kinases [1]) | KINOMEscan: ACVRL1 (panel of 442 kinases [2]) | KINOMEscan: PKN2 (panel of 442 kinases [3]) | % Ctrl, STK39 (panel of 442 kinases [4])
COc1cc(C(=O)N2CCC(N3CCN(C)CC3)CC2)ccc1Nc1ncc2c(n1)N(C)c1ccccc1C(=O)N2C [15 (LRRK2-IN-1)] | 84 | 100 | 95 | 39 % Ctrl
COc1cc(C(=O)N2CCC(N3CCN(C)CC3)CC2)ccc1Nc1ncc2c(n1)N1CCc3cccc(c31)C(=O)N2C [Compound 24] | 79 | – | 82 | 100 % Ctrl
COc1cc(C(=O)N2CCC(N3CCN(C)CC3)CC2)ccc1Nc1ncc2c(n1)N(C1CCCC1)c1ccccc1C(=O)N2C [Compound 25, 11-cyclopentyl-2-((2-methoxy-4-(4-(4-methylpiperazin-1-yl)piperidine-1-carbonyl)phenyl)amino)-5-methyl-5H-benzo[e]pyrimido[5,4-b][1,4]diazepin-6(11H)-one] | 98 | 100 | 100 | 100 % Ctrl
CCOc1cc(C(=O)N2CCC(N3CCN(C)CC3)CC2)ccc1Nc1ncc2c(n1)N(C1CCCC1)c1ccccc1C(=O)N2C [Compound 26] | 99 | 100 | 100 | 100 % Ctrl
